The values below are quoted from earlier work in patent US10584074B2, “Microencapsulated nitrification inhibitor compositions” (Dow AgroSciences LLC, priority 2017, dated 2020).

For this data set the following is noted: at 23° Celsius.

Consider `Clc1cccc(C(Cl)(Cl)Cl)n1` [nitrapyrin, 2-chloro-6-(trichloromethyl)pyridine], for which the vapor pressure is given as 2.8×10^−3 mm Hg.
